The NIST ThermoML archive (doi:10.1016/j.fluid.2008.03.004)

Columns and labels:
[1] = xn = mol fraction of the nth substance listed; conditions: 101 kPa, Liquid; for speed of sound: Sing-around technique in a fixed-path interferometer
[2] = 101 kPa, Liquid; for speed of sound: Sing-around technique in a fixed-path interferometer

Cc1ccc(C)cc1 [1,4-dimethylbenzene] + CCOC(C)(C)C
[1], x2 = 0
Conditions | mass density [kg/m3] | speed of sound [m/s]
288.15 K | 865.354 | 1347.9
290.65 K | 863.184 | 1336.9
293.15 K | 861.015 | 1326.1
295.65 K | 858.846 | 1315.6
298.15 K | 856.675 | 1305.4
300.65 K | 854.501 | 1295.3
303.15 K | 852.326 | 1285.4
305.65 K | 850.148 | 1275.6
308.15 K | 847.969 | 1266.1
310.65 K | 845.784 | 1256.4
313.15 K | 843.599 | 1246.8
315.65 K | 841.41 | 1237.6
318.15 K | 839.22 | 1228.1
320.65 K | 837.031 | 1220.5
323.15 K | 834.849 | 1211

Cc1ccc(C)cc1 [1,4-dimethylbenzene] + COC(C)(C)C
[1], x2 = 0
Conditions | mass density [kg/m3] | speed of sound [m/s]
288.15 K | 865.354 | 1347.9
290.65 K | 863.184 | 1336.9
293.15 K | 861.015 | 1326.1
295.65 K | 858.846 | 1315.6
298.15 K | 856.675 | 1305.4
300.65 K | 854.501 | 1295.3
303.15 K | 852.326 | 1285.4
305.65 K | 850.148 | 1275.6
308.15 K | 847.969 | 1266.1
310.65 K | 845.784 | 1256.4
313.15 K | 843.599 | 1246.8
315.65 K | 841.41 | 1237.6
318.15 K | 839.22 | 1228.1
320.65 K | 837.031 | 1220.5
323.15 K | 834.849 | 1211

CCOC(C)(C)C [2-ethoxy-2-methylpropane]
[2]
Conditions | mass density [kg/m3] | speed of sound [m/s]
288.15 K | 744.955 | 1076.4
290.65 K | 742.482 | 1065.1
293.15 K | 739.947 | 1053.7
295.65 K | 737.374 | 1042.2
298.15 K | 734.806 | 1031
300.65 K | 732.225 | 1019.8
303.15 K | 729.647 | 1008.6
305.65 K | 727.038 | 997.52
308.15 K | 724.443 | 986.39
310.65 K | 721.826 | 975.42
313.15 K | 719.179 | 964.53
315.65 K | 716.527 | 953.54
318.15 K | 713.96 | 942.67
320.65 K | 711.25 | 931.73
323.15 K | 708.642 | 920.73

COC(C)(C)C [2-methoxy-2-methylpropane]
[2]
Conditions | mass density [kg/m3] | speed of sound [m/s]
288.15 K | 744.861 | 1083.4
290.65 K | 742.259 | 1071.6
293.15 K | 739.654 | 1060
295.65 K | 737.036 | 1048.5
298.15 K | 734.406 | 1036.9
300.65 K | 731.766 | 1025.4
303.15 K | 729.112 | 1013.9
305.65 K | 726.444 | 1002.4
308.15 K | 723.763 | 990.99
310.65 K | 721.069 | 979.62
313.15 K | 718.357 | 968.16
315.65 K | 715.636 | 956.8
318.15 K | 712.897 | 945.54
320.65 K | 710.141 | 934.24
323.15 K | 707.381 | 922.97

COC(C)(C)C [2-methoxy-2-methylpropane] + Cc1cccc(C)c1
[1], x1 = 1
Conditions | mass density [kg/m3] | speed of sound [m/s]
288.15 K | 744.861 | 1083.4
290.65 K | 742.259 | 1071.6
293.15 K | 739.654 | 1060
295.65 K | 737.036 | 1048.5
298.15 K | 734.406 | 1036.9
300.65 K | 731.766 | 1025.4
303.15 K | 729.112 | 1013.9
305.65 K | 726.444 | 1002.4
308.15 K | 723.763 | 990.99
310.65 K | 721.069 | 979.62
313.15 K | 718.357 | 968.16
315.65 K | 715.636 | 956.8
318.15 K | 712.897 | 945.54
320.65 K | 710.141 | 934.24
323.15 K | 707.381 | 922.97

COC(C)(C)C [2-methoxy-2-methylpropane] + Cc1ccccc1C
[1], x1 = 1
Conditions | mass density [kg/m3] | speed of sound [m/s]
288.15 K | 744.861 | 1083.4
290.65 K | 742.259 | 1071.6
293.15 K | 739.654 | 1060
295.65 K | 737.036 | 1048.5
298.15 K | 734.406 | 1036.9
300.65 K | 731.766 | 1025.4
303.15 K | 729.112 | 1013.9
305.65 K | 726.444 | 1002.4
308.15 K | 723.763 | 990.99
310.65 K | 721.069 | 979.62
313.15 K | 718.357 | 968.16
315.65 K | 715.636 | 956.8
318.15 K | 712.897 | 945.54
320.65 K | 710.141 | 934.24
323.15 K | 707.381 | 922.97
